From ChEMBL document CHEMBL1123107, “Synthesis, stereochemistry, and analgesic activity of 4-mono- and 4,4-disubstituted 1,2,3,4,5,6-hexahydro-2,6-methano-3-benzazocines” (1985) come the findings set out here.

Activity calls are given as the source filed them. The rule behind the calls is not given here.

For the first assay, the species on record is Mus musculus. The experiment in a line: Compound was evaluated for analgesic activity in a mouse hotplate test. It is filed as functional.
The term ED50 denotes the dose that gives a 50% effect, or the effect in half of the subjects. In turn, `CC1CC2(C)CC(Cc3ccc(O)cc32)N1CC1CC1` (centres undefined) came in with an ED50 of 2.4 mg/kg.
The molecule `C[C@@H]1CC2(C)CC(Cc3ccccc32)N1C` (some centres undefined) came in with an ED50 of 10.6 mg/kg.
Same read-out and setting: the same measure for `C[C@H]1CC2(C)CC(Cc3ccccc32)N1C` (some centres undefined): 24.7 mg/kg; for `C=CCN1C(C)CC2(C)CC1Cc1ccc(O)cc12` (centres undefined): 4.2 mg/kg.
Still for that read-out and setting: the same measure for `CN1CC[C@]23c4c5ccc(O)c4O[C@H]2[C@@H](O)C=C[C@H]3[C@H]1C5.CN1CC[C@]23c4c5ccc(O)c4O[C@H]2[C@@H](O)C=C[C@H]3[C@H]1C5.O=S(=O)(O)O`: 1.2 mg/kg; for `CC1CC2(C)c3ccccc3CC(C2C)N1C` (centres undefined): 14.8 mg/kg.
Turning to `C=CC[C@]1(C)CC2(C)CC(Cc3ccccc32)N1C` (some centres undefined), it took a dose of 3.7 mg/kg to reach the 50% effect level (ED50).
Molecule `CC1CC2(C)CC(Cc3ccc(O)cc32)N1C` (centres undefined) gave an ED50 of 1.1 mg/kg.

For a further assay, the system named is Mus musculus. Briefly: Compound was evaluated for analgesic activity in a mouse hotplate test; IA= Inactive at the dose level of 20 mg/kg. Format: functional, organism-based. Details: dose 20 mg/kg.
In the case of `CCC1CC2(C)c3ccccc3CC(C2C)N1C` (centres undefined), the ED50 entry was “inactive”.
`C=CC[C@@]1(C)CC2(C)CC(Cc3ccccc32)N1C` (some centres undefined): the ED50 result is “inactive”.

In another assay the test system is Mus musculus. The experiment in a line: Compound was evaluated for analgesic activity in a mouse hotplate test; IA= Inactive at the dose level of 50 mg/kg. Details: dose 50 mg/kg. Format: functional, organism-based.
`CC1CN(C)C2Cc3ccc(O)cc3C1(C)C2` (centres undefined): the ED50 entry is “inactive”.

The species entered for a further assay is Mus musculus. The experiment in a line: Compound was evaluated for analgesic activity in a mouse hotplate test; b= low level of activity exhibited which did not follow a dose-response relationship. It is filed as functional, organism-based.
On to `CN1C2Cc3ccccc3C(C)(C2)CC1(C)Cc1ccccc1` (centres undefined), for which the ED50 result is recorded as “Low level of activity”.
On the same count and under the same terms, the value for `CC1C2Cc3ccccc3C1(C)CC(CCc1ccccc1)N2C` (centres undefined) was “Low level of activity”.
Consider `CC1C2Cc3ccccc3C1(C)CC(Cc1ccccc1)N2C` (centres undefined), for which the 50% effective dose (ED50) result is reported as “Low level of activity”.
